Measured values reported in PubChem BioAssay AID2060512 (Molecular Pharmacology Branch, DTP, NCI, 2025).

System: 186277-243-T-J2-PDC complex spheroid viability
Experiment: Anticancer human tumor 186277-243-T-J2-PDC patient-derived colon adenocarcinoma cell line growth inhibition [GQUAD]
Details: for IC50: curve of first compound; for viability, T/C: stronger effect = lower value
In short: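 Tumor cells were grown as complex spheroids with HUVEC endothelial cells and mesenchymal stem cells as stroma. G-quadruplex stabilizers were combined with targeted agents over half-log dilutions from near the clinical Cmax, or from 10 microM.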

[1] = second compound 0.0316 µM, first compound 0.000999 µM
[2] = second compound 0.0316 µM, first compound 0.00316 µM
[3] = second compound 0.0316 µM, first compound 0.00999 µM
[4] = second compound 0.0316 µM, first compound 0.0316 µM
[5] = second compound 0.0316 µM, first compound 0.0999 µM
[6] = second compound 0.0316 µM, first compound 0.316 µM
[7] = second compound 0.1 µM, first compound 0.000999 µM
[8] = second compound 0.1 µM, first compound 0.00316 µM
[9] = second compound 0.1 µM, first compound 0.00999 µM
[10] = second compound 0.1 µM, first compound 0.0316 µM
[11] = second compound 0.1 µM, first compound 0.0999 µM
[12] = second compound 0.1 µM, first compound 0.316 µM
[13] = second compound 0.316 µM, first compound 0.000999 µM
[14] = second compound 0.316 µM, first compound 0.00316 µM
[15] = second compound 0.316 µM, first compound 0.00999 µM
[16] = second compound 0.316 µM, first compound 0.0316 µM
[17] = second compound 0.316 µM, first compound 0.0999 µM
[18] = second compound 0.316 µM, first compound 0.316 µM
[19] = second compound 1 µM, first compound 0.000999 µM
[20] = second compound 1 µM, first compound 0.00316 µM
[21] = second compound 1 µM, first compound 0.00999 µM
[22] = second compound 1 µM, first compound 0.0316 µM
[23] = second compound 1 µM, first compound 0.0999 µM
[24] = second compound 1 µM, first compound 0.316 µM
[25] = second compound 3.16 µM, first compound 0.000999 µM
[26] = second compound 3.16 µM, first compound 0.00316 µM
[27] = second compound 3.16 µM, first compound 0.00999 µM
[28] = second compound 3.16 µM, first compound 0.0316 µM
[29] = second compound 3.16 µM, first compound 0.0999 µM
[30] = second compound 3.16 µM, first compound 0.316 µM
[31] = second compound 10 µM, first compound 0.000999 µM
[32] = second compound 10 µM, first compound 0.00316 µM
[33] = second compound 10 µM, first compound 0.00999 µM
[34] = second compound 10 µM, first compound 0.0316 µM
[35] = second compound 10 µM, first compound 0.0999 µM
[36] = second compound 10 µM, first compound 0.316 µM
[37] = second compound 0.0316 µM, first compound 0.1 µM
[38] = second compound 0.0316 µM, first compound 1 µM
[39] = second compound 0.0316 µM, first compound 3.16 µM
[40] = second compound 0.0316 µM, first compound 10 µM
[41] = second compound 0.1 µM, first compound 0.1 µM
[42] = second compound 0.1 µM, first compound 1 µM
[43] = second compound 0.1 µM, first compound 3.16 µM
[44] = second compound 0.1 µM, first compound 10 µM
[45] = second compound 0.316 µM, first compound 0.1 µM
[46] = second compound 0.316 µM, first compound 1 µM
[47] = second compound 0.316 µM, first compound 3.16 µM
[48] = second compound 0.316 µM, first compound 10 µM
[49] = second compound 1 µM, first compound 0.1 µM
[50] = second compound 1 µM, first compound 1 µM
[51] = second compound 1 µM, first compound 3.16 µM
[52] = second compound 1 µM, first compound 10 µM
[53] = second compound 3.16 µM, first compound 0.1 µM
[54] = second compound 3.16 µM, first compound 1 µM
[55] = second compound 3.16 µM, first compound 3.16 µM
[56] = second compound 3.16 µM, first compound 10 µM
[57] = second compound 10 µM, first compound 0.1 µM
[58] = second compound 10 µM, first compound 1 µM
[59] = second compound 10 µM, first compound 3.16 µM
[60] = second compound 10 µM, first compound 10 µM
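Further: spheroids exposed to drugs for 7 days.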
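Wherever viability, T/C is given: 100% = DMSO vehicle control viability.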

Compound: CC[C@@]1(O)C(=O)OCc2c1cc1n(c2=O)Cc2cc3c(CN(C)C)c(O)ccc3nc2-1 + Cc1[nH]c2ccc(F)cc2c1-c1nc2c3cccnc3c3ncccc3c2[nH]1
- IC50 (second compound 0.0316 µM): > 0.316 µM
- IC50 (second compound 0.1 µM): > 0.316 µM
- IC50 (second compound 0.316 µM): > 0.316 µM
- IC50 (second compound 1 µM): > 0.316 µM
- IC50 (second compound 3.16 µM): > 0.316 µM
- IC50 (second compound 10 µM): > 0.316 µM
- viability, T/C [1]: 97%
- viability, T/C [2]: 91.6%
- viability, T/C [3]: 88.2%
- viability, T/C [4]: 93.9%
- viability, T/C [5]: 68.2%
- viability, T/C [6]: 51.6%
- viability, T/C [7]: 111%
- viability, T/C [8]: 106%
- viability, T/C [9]: 94.2%
- viability, T/C [10]: 93.7%
- viability, T/C [11]: 77.9%
- viability, T/C [12]: 59.6%
- viability, T/C [13]: 96.3%
- viability, T/C [14]: 95%
- viability, T/C [15]: 92.8%
- viability, T/C [16]: 89.8%
- viability, T/C [17]: 78%
- viability, T/C [18]: 60.7%
- viability, T/C [19]: 95.3%
- viability, T/C [20]: 101%
- viability, T/C [21]: 94.8%
- viability, T/C [22]: 103%
- viability, T/C [23]: 77.7%
- viability, T/C [24]: 55.7%
- viability, T/C [25]: 118%
- viability, T/C [26]: 94.1%
- viability, T/C [27]: 109%
- viability, T/C [28]: 92.9%
- viability, T/C [29]: 67.4%
- viability, T/C [30]: 57.4%
- viability, T/C [31]: 87.9%
- viability, T/C [32]: 99.9%
- viability, T/C [33]: 86.8%
- viability, T/C [34]: 87.3%
- viability, T/C [35]: 79.8%
- viability, T/C [36]: 56.1%

Compound: CCc1c2c(nc3ccc(O)cc13)-c1cc3c(c(=O)n1C2)COC(=O)[C@]3(O)CC + Cc1[nH]c2ccc(F)cc2c1-c1nc2c3cccnc3c3ncccc3c2[nH]1
- IC50 (second compound 0.0316 µM): 0.013 µM
- IC50 (second compound 0.1 µM): 0.0131 µM
- IC50 (second compound 0.316 µM): 0.0103 µM
- IC50 (second compound 1 µM): 0.0113 µM
- IC50 (second compound 3.16 µM): 0.00739 µM
- IC50 (second compound 10 µM): 0.0157 µM
- viability, T/C [1]: 99.6%
- viability, T/C [2]: 71.6%
- viability, T/C [3]: 62.5%
- viability, T/C [4]: 29.9%
- viability, T/C [5]: 25.1%
- viability, T/C [6]: 21.1%
- viability, T/C [7]: 115%
- viability, T/C [8]: 94.5%
- viability, T/C [9]: 52.4%
- viability, T/C [10]: 36.5%
- viability, T/C [11]: 21.4%
- viability, T/C [12]: 22%
- viability, T/C [13]: 105%
- viability, T/C [14]: 70.1%
- viability, T/C [15]: 54.2%
- viability, T/C [16]: 33.9%
- viability, T/C [17]: 23.7%
- viability, T/C [18]: 19.8%
- viability, T/C [19]: 91.5%
- viability, T/C [20]: 73.2%
- viability, T/C [21]: 49.9%
- viability, T/C [22]: 37.4%
- viability, T/C [23]: 25%
- viability, T/C [24]: 20.7%
- viability, T/C [25]: 85.9%
- viability, T/C [26]: 63.5%
- viability, T/C [27]: 45.6%
- viability, T/C [28]: 31%
- viability, T/C [29]: 26.4%
- viability, T/C [30]: 18.7%
- viability, T/C [31]: 77.2%
- viability, T/C [32]: 72.2%
- viability, T/C [33]: 58.8%
- viability, T/C [34]: 36.8%
- viability, T/C [35]: 24.1%
- viability, T/C [36]: 23.3%

Compound: COc1cc(C2c3cc4c(cc3C(OC3OC5COC(C)OC5C(O)C3O)C3COC(=O)C23)OCO4)cc(OC)c1O (stereo not drawn) + Cc1[nH]c2ccc(F)cc2c1-c1nc2c3cccnc3c3ncccc3c2[nH]1
- IC50 (second compound 0.0316 µM): 3.72 µM
- IC50 (second compound 0.1 µM): 2.42 µM
- IC50 (second compound 0.316 µM): 3.48 µM
- IC50 (second compound 1 µM): 3.34 µM
- IC50 (second compound 3.16 µM): 2.58 µM
- IC50 (second compound 10 µM): 2.76 µM
- viability, T/C [4]: 104%
- viability, T/C [37]: 101%
- viability, T/C [6]: 101%
- viability, T/C [38]: 62.2%
- viability, T/C [39]: 61.3%
- viability, T/C [40]: 25%
- viability, T/C [10]: 92.1%
- viability, T/C [41]: 92.4%
- viability, T/C [12]: 76.8%
- viability, T/C [42]: 62%
- viability, T/C [43]: 47.9%
- viability, T/C [44]: 27.2%
- viability, T/C [16]: 94.6%
- viability, T/C [45]: 90.2%
- viability, T/C [18]: 83.4%
- viability, T/C [46]: 69.3%
- viability, T/C [47]: 52.9%
- viability, T/C [48]: 26.2%
- viability, T/C [22]: 104%
- viability, T/C [49]: 87.1%
- viability, T/C [24]: 85.6%
- viability, T/C [50]: 66.9%
- viability, T/C [51]: 53.5%
- viability, T/C [52]: 27.4%
- viability, T/C [28]: 96.6%
- viability, T/C [53]: 101%
- viability, T/C [30]: 110%
- viability, T/C [54]: 69%
- viability, T/C [55]: 49.8%
- viability, T/C [56]: 25.5%
- viability, T/C [34]: 103%
- viability, T/C [57]: 98%
- viability, T/C [36]: 94.1%
- viability, T/C [58]: 70.6%
- viability, T/C [59]: 48.1%
- viability, T/C [60]: 30.5%

Compound: Nc1ccn(C2OC(CO)C(O)C2(F)F)c(=O)n1 (stereo not drawn) + Cc1[nH]c2ccc(F)cc2c1-c1nc2c3cccnc3c3ncccc3c2[nH]1
- IC50 (second compound 0.0316 µM): < 0.0316 µM
- IC50 (second compound 0.1 µM): < 0.0316 µM
- IC50 (second compound 0.316 µM): < 0.0316 µM
- IC50 (second compound 1 µM): < 0.0316 µM
- IC50 (second compound 3.16 µM): < 0.0316 µM
- IC50 (second compound 10 µM): < 0.0316 µM
- viability, T/C [4]: 21.6%
- viability, T/C [37]: 11.7%
- viability, T/C [6]: 11.9%
- viability, T/C [38]: 10.3%
- viability, T/C [39]: 11.4%
- viability, T/C [40]: 11.4%
- viability, T/C [10]: 22.8%
- viability, T/C [41]: 11.5%
- viability, T/C [12]: 11.6%
- viability, T/C [42]: 9.19%
- viability, T/C [43]: 12.4%
- viability, T/C [44]: 11.5%
- viability, T/C [16]: 23.7%
- viability, T/C [45]: 10.1%
- viability, T/C [18]: 11.9%
- viability, T/C [46]: 10.4%
- viability, T/C [47]: 12.4%
- viability, T/C [48]: 11.6%
- viability, T/C [22]: 18.9%
- viability, T/C [49]: 10.6%
- viability, T/C [24]: 11.8%
- viability, T/C [50]: 10.4%
- viability, T/C [51]: 11.7%
- viability, T/C [52]: 12.1%
- viability, T/C [28]: 23.4%
- viability, T/C [53]: 15.5%
- viability, T/C [30]: 11.9%
- viability, T/C [54]: 11.3%
- viability, T/C [55]: 9.87%
- viability, T/C [56]: 12.2%
- viability, T/C [34]: 20.2%
- viability, T/C [57]: 8.63%
- viability, T/C [36]: 9.73%
- viability, T/C [58]: 9.38%
- viability, T/C [59]: 11.6%
- viability, T/C [60]: 12.2%
